Results taken from PMC6939882 (Molecular microbiology, 2017).

How the values were obtained:
[1] = biological target: T1, Amy13K WT (Agathobacter rectalis, UniProt A0ABF7PGZ5); test: isothermal titration calorimetry of hydrolysis; format: biochemical; conditions: 37 °C; only kcat/KM printed
T1 sequence (A0ABF7PGZ5 44-1364): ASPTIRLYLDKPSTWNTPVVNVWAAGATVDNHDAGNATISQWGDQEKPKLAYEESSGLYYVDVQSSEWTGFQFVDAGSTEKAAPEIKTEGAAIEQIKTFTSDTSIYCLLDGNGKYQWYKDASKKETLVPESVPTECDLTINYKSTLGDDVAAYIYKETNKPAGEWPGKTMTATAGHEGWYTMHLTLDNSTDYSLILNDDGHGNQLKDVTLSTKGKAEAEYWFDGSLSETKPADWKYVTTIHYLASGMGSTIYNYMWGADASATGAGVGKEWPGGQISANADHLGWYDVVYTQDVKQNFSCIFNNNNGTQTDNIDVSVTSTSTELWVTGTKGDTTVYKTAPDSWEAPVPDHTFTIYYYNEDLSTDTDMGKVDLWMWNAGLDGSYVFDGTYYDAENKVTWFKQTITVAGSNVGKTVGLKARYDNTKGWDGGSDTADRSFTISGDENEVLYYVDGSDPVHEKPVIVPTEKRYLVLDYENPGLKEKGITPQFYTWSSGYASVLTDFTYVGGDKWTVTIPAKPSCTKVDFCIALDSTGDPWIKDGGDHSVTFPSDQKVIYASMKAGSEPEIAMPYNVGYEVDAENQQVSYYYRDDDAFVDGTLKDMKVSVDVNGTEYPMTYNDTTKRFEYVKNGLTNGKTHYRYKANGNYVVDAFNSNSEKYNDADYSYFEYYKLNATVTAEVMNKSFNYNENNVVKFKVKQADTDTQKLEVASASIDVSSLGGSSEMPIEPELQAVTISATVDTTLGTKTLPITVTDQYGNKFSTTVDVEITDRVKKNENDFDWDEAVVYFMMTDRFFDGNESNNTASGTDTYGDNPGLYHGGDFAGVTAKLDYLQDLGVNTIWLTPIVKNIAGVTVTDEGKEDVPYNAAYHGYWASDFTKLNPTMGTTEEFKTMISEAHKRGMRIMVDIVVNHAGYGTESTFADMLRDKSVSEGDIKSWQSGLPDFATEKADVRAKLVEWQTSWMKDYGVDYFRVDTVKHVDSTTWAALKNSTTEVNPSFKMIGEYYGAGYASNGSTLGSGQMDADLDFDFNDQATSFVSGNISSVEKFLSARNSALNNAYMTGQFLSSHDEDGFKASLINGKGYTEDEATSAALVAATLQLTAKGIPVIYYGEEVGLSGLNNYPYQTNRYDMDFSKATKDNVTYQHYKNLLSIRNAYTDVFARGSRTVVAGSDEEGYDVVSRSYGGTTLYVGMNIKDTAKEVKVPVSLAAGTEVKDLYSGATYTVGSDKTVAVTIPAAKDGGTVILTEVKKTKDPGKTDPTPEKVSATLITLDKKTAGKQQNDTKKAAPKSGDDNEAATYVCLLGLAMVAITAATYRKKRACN

[2] = biological target: T2, Amy13K ΔCBMa-e (Agathobacter rectalis, UniProt A0ABF7PGZ5); test: isothermal titration calorimetry of hydrolysis; format: biochemical; conditions: 37 °C; only kcat/KM printed
T2 sequence (A0ABF7PGZ5 621-1364 limits assumed): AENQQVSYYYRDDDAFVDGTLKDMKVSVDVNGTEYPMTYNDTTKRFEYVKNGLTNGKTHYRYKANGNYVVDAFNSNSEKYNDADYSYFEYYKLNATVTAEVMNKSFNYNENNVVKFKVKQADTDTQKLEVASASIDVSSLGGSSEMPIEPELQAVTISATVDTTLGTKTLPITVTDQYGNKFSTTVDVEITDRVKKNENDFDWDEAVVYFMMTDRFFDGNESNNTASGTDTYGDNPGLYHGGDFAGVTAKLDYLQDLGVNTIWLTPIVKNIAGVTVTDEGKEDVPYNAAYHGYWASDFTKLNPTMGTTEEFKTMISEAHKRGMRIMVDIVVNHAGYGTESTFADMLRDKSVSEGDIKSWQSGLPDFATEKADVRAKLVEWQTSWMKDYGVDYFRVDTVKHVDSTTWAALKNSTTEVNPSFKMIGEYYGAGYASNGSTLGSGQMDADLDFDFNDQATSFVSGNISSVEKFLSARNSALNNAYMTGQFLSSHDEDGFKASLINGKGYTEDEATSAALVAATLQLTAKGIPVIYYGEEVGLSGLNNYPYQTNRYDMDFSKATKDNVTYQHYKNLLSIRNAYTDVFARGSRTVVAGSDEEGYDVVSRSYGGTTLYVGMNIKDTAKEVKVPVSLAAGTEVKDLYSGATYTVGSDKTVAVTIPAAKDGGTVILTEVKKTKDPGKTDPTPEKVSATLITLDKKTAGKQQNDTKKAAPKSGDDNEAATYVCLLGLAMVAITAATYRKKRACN

SMILES: OC[C@H]1O[C@H](O[C@H]2[C@H](O)[C@@H](O)[C@@H](O[C@H]3[C@H](O)[C@@H](O)[C@@H](O[C@H]4[C@H](O)[C@@H](O)[C@@H](O[C@H]5[C@H](O)[C@@H](O)[C@@H](O[C@H]6[C@H](O)[C@@H](O)[C@@H](O[C@H]7[C@H](O)[C@@H](O)C(O)O[C@@H]7CO)O[C@@H]6CO)O[C@@H]5CO)O[C@@H]4CO)O[C@@H]3CO)O[C@@H]2CO)[C@H](O)[C@@H](O)[C@@H]1O (some centres unmarked) [maltoheptaose]
- isothermal titration calorimetry of hydrolysis [1]: The catalytic efficiency of the WT and ΔCBMa-e on maltoheptaose are
- isothermal titration calorimetry of hydrolysis [2]: The catalytic efficiency of the WT and ΔCBMa-e on maltoheptaose are
